Data as given in US20240116985A1, “STAPLED PEPTIDES AND METHODS THEREOF” (priority 2020, published 2024).
≈ marks a conversion by molar mass, not a printed value. Read-outs that look alike come from different tables or passages of the source.

Experiments:
Solubility in PBS = type: physicochemical
Outline: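 PBS sample ultracentrifuged; supernatant run on HPLC vs. 50 μM peptide in DMSO standard. Solubility = (PBS peak area / DMSO peak area) × 50 uM.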

[1] = biological target: T1, full-length beta-Catenin (Uniprot ID P35222) (Homo sapiens, UniProt P35222); test: Fluorescence polarization IC50 (beta-catenin / 5FAM-TCF4 10-53 competition); type: binding; conditions: read-out: beta-Catenin FP IC50
T1 construct: 10 nM full-length beta-Catenin (Uniprot ID P35222)
T1 sequence (P35222 1-781): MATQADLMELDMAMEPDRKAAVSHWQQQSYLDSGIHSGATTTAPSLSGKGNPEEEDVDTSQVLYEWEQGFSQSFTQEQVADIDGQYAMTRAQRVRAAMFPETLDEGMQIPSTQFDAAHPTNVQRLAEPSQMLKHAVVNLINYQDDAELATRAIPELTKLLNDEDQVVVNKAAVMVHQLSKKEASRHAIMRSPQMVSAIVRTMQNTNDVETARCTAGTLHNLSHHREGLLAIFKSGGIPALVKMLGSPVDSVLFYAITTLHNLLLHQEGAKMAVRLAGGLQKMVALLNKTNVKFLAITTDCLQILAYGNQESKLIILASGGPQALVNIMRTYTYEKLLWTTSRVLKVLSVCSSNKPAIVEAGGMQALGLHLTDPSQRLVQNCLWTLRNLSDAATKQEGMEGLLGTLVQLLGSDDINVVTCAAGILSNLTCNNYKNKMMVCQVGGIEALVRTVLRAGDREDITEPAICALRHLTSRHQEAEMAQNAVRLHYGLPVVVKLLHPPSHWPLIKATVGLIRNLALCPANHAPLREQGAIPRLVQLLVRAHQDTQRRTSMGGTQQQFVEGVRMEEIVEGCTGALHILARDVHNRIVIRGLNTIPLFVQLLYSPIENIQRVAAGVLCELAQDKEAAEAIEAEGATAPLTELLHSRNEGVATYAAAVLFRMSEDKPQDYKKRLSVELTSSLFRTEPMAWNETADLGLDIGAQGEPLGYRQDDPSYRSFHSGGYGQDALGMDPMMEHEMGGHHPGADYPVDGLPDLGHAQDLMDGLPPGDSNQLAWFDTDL

[2] = biological target: T2, beta-catenin/TCF4 engagement (Homo sapiens, UniProt P35222); test: Nano-BRET target engagement assay (B-cat-Halo & TCF4-Luc in HEK293 cells); type: cell-based
T2 construct: expressed in transfected cells; host or cells: HEK293
T2 sequence (P35222 1-781): T1 sequence (P35222 1-781)

CHI Log D procedure = type: physicochemical

SMILES: CC(=O)N1CCC[C@]12CC=CCCCC1(CCCC=CCCCOC(=O)N3CC[C@@](C(=O)N[C@@H](Cc4ccsc4)C(=O)N[C@@H](Cc4csc5ccccc45)C(=O)N[C@@H](CCC(N)=O)C(=O)N[C@@H](CCCCNC(=O)C(C)(c4ccccc4)c4ccccc4)C(N)=O)(C3)NC(=O)[C@H](CC(N)=O)NC(=O)[C@H](Cc3ccccc3)NC(=O)[C@H](C)NC(=O)[C@H](C)NC(=O)[C@H](CC(=O)O)NC(=O)[C@H](CC(=O)O)NC1=O)NC(=O)[C@H](CC(C)(C)C)NC(=O)[C@H](CC(=O)O)NC2=O (stereo partly drawn) [I-904, Ac-PL3-Asp-Npg-B5-Asp-Asp-Ala-Ala-Phe-Asn-PyrS2-3Thi-BztA-Gln-[22PhPr]Lys-NH2]
- Solubility (Solubility in PBS): 30 µM (≈ 67.6 µg/mL)
- IC50 [1]: 54 nM
- IC50 ([2]; read-out: NanoBRET Abs IC50): 20000 nM
- chromatographic logD (CHI Log D procedure; pH 7.4): 2.65

SMILES: CC(=O)N1CCC[C@]12CC=CCCCC1(CCCC=CCCCOC(=O)N3CC[C@@](C(=O)N[C@@H](Cc4ccsc4)C(=O)N[C@@H](Cc4csc5ccccc45)C(=O)N[C@@H](CCC(N)=O)C(=O)N[C@@H](CCCCNC(=O)CN4CCN(C)CC4)C(N)=O)(C3)NC(=O)[C@H](CC(N)=O)NC(=O)[C@H](Cc3ccccc3)NC(=O)[C@H](C)NC(=O)[C@H](C)NC(=O)[C@H](CC(=O)O)NC(=O)[C@H](CC(=O)O)NC1=O)NC(=O)[C@H](CC(C)(C)C)NC(=O)[C@H](CC(=O)O)NC2=O (stereo partly drawn) [I-906, Ac-PL3-Asp-Npg-B5-Asp-Asp-Ala-Ala-Phe-Asn-PyrS2-3Thi-BztA-Gln-MePipAc Lys-NH2]
- solubility at 15 min (Solubility in PBS; Solubility (uM)): 46 µM (≈ 101 µg/mL)
- IC50 [1]: 8 nM
- IC50 ([2]; read-out: NanoBRET IC50): > 20000 nM
- chromatographic logD (CHI Log D procedure; pH 7.4, CHI Log D): 1.75

SMILES: CC(=O)N1CCC[C@]12CC=CCCCC1(CCCC=CCCCOC(=O)N3CC[C@@](C(=O)N[C@@H](Cc4ccsc4)C(=O)N[C@@H](Cc4csc5ccccc45)C(=O)N[C@@H](CCC(N)=O)C(=O)N[C@@H](CCCCNC(=O)C4CCN(C5CCN(C)CC5)CC4)C(N)=O)(C3)NC(=O)[C@H](CC(N)=O)NC(=O)[C@H](Cc3ccccc3)NC(=O)[C@H](C)NC(=O)[C@H](C)NC(=O)[C@H](CC(=O)O)NC(=O)[C@H](CC(=O)O)NC1=O)NC(=O)[C@H](CC(C)(C)C)NC(=O)[C@H](CC(=O)O)NC2=O (stereo partly drawn) [I-907, Ac-PL3-Asp-Npg-B5-Asp-Asp-Ala-Ala-Phe-Asn-PyrS2-3Thi-BztA-Gln-[MeBipipAc]Lys-NH2]
- Solubility (Solubility in PBS; Solubility (uM)): 20 µM (≈ 45.1 µg/mL)
- IC50 [1]: 9 nM
- IC50 ([2]; read-out: NanoBRET Abs IC50): 27800 nM
- chromatographic logD (CHI Log D procedure; pH 7.4, CHI Log D): 1.8

SMILES: CC(=O)N1CCC[C@]12CC=CCCCC1(CCCC=CCCCOC(=O)N3CC[C@@](C(=O)N[C@@H](Cc4ccsc4)C(=O)N[C@@H](Cc4csc5ccccc45)C(=O)N[C@@H](CCC(N)=O)C(=O)N[C@@H](CCCCNC(=O)c4ccc(CN5CCN(C)CC5)cc4)C(N)=O)(C3)NC(=O)[C@H](CC(N)=O)NC(=O)[C@H](Cc3ccccc3)NC(=O)[C@H](C)NC(=O)[C@H](C)NC(=O)[C@H](CC(=O)O)NC(=O)[C@H](CC(=O)O)NC1=O)NC(=O)[C@H](CC(C)(C)C)NC(=O)[C@H](CC(=O)O)NC2=O (stereo partly drawn) [I-908, Ac-PL3-Asp-Npg-B5-Asp-Asp-Ala-Ala-Phe-Asn-PyrS2-3Thi-BztA-Gln-[4MePipBz]Lys-NH2]
- Solubility (Solubility in PBS; Solubility (uM)): 44 µM (≈ 99.6 µg/mL)
- IC50 [1]: 10 nM
- IC50 ([2]; read-out: NanoBRET Abs IC50): 26000 nM
- chromatographic logD (CHI Log D procedure; pH 7.4, CHI Log D): 1.82

SMILES: CC(=O)N1CCC[C@]12CC=CCCCC1(CCCC=CCCCOC(=O)N3CC[C@@](C(=O)N[C@@H](Cc4ccsc4)C(=O)N[C@@H](Cc4csc5ccccc45)C(=O)N[C@@H](CCC(N)=O)C(=O)N[C@@H](CCCCNC(=O)c4ccc(CN5CCOCC5)cc4)C(N)=O)(C3)NC(=O)[C@H](CC(N)=O)NC(=O)[C@H](Cc3ccccc3)NC(=O)[C@H](C)NC(=O)[C@H](C)NC(=O)[C@H](CC(=O)O)NC(=O)[C@H](CC(=O)O)NC1=O)NC(=O)[C@H](CC(C)(C)C)NC(=O)[C@H](CC(=O)O)NC2=O (stereo partly drawn) [I-909, Ac-PL3-Asp-Npg-B5-Asp-Asp-Ala-Ala-Phe-Asn-PyrS2-3Thi-BztA-Gln-[MeMorphBz]Lys-NH2]
- Solubility (Solubility in PBS; Solubility (uM)): 44 µM (≈ 99 µg/mL)
- IC50 [1]: 8 nM
- IC50 ([2]; read-out: NanoBRET Abs IC50): 28400 nM
- chromatographic logD (CHI Log D procedure; pH 7.4, CHI Log D): 1.93

SMILES: CC(=O)N1CCC[C@]12CC=CCCCC1(CCCC=CCCCOC(=O)N3CC[C@@](C(=O)N[C@@H](Cc4ccsc4)C(=O)N[C@@H](Cc4csc5ccccc45)C(=O)N[C@@H](CCC(N)=O)C(=O)N[C@@H](CCCCNC(=O)c4ccc(CN(C)C)cc4)C(N)=O)(C3)NC(=O)[C@H](CC(N)=O)NC(=O)[C@H](Cc3ccccc3)NC(=O)[C@H](C)NC(=O)[C@H](C)NC(=O)[C@H](CC(=O)O)NC(=O)[C@H](CC(=O)O)NC1=O)NC(=O)[C@H](CC(C)(C)C)NC(=O)[C@H](CC(=O)O)NC2=O (stereo partly drawn) [I-910, Ac-PL3-Asp-Npg-B5-Asp-Asp-Ala-Ala-Phe-Asn-PyrS2-3Thi-BztA-Gln-[Me2NCBz]Lys-NH2]
- Solubility (Solubility in PBS; Solubility (uM)): 40 µM (≈ 88.3 µg/mL)
- IC50 [1]: 10 nM
- IC50 ([2]; read-out: NanoBRET Abs IC50): 29800 nM
- chromatographic logD (CHI Log D procedure; pH 7.4, CHI Log D): 1.84

SMILES: COCCOCCOCCOCCOCCOCCC(=O)NCCCC[C@H](NC(=O)[C@H](CCC(N)=O)NC(=O)[C@H](Cc1csc2ccccc12)NC(=O)[C@H](Cc1ccsc1)NC(=O)[C@]12CCN(C1)C(=O)OCCCC=CCCCC1(CCCC=CC[C@]3(CCCN3C(C)=O)C(=O)N[C@@H](CC(=O)O)C(=O)N[C@@H](CC(C)(C)C)C(=O)N1)C(=O)N[C@@H](CC(=O)O)C(=O)N[C@@H](CC(=O)O)C(=O)N[C@@H](C)C(=O)N[C@@H](C)C(=O)N[C@@H](Cc1ccccc1)C(=O)N[C@@H](CC(N)=O)C(=O)N2)C(N)=O (stereo partly drawn) [I-913, Ac-PL3-Asp-Npg-B5-Asp-Asp-Ala-Ala-Phe-Asn-PyrS2-3Thi-BztA-Gln-[mPEG6]Lys-NH2]
- Solubility (Solubility in PBS; Solubility (uM)): 49 µM (≈ 115 µg/mL)
- IC50 [1]: 10 nM
- IC50 ([2]; read-out: NanoBRET Abs IC50): 26400 nM
- chromatographic logD (CHI Log D procedure; pH 7.4, CHI Log D): 1.82

SMILES: CC(=O)N1CCC[C@]12CC=CCCCC1(CCCC=CCCCOC(=O)N3CC[C@@](C(=O)N[C@@H](Cc4ccsc4)C(=O)N[C@@H](Cc4csc5ccccc45)C(=O)N[C@@H](CCC(N)=O)C(=O)N[C@@H](CCCCNC(=O)c4ccc5ccccc5c4)C(N)=O)(C3)NC(=O)[C@H](CC(N)=O)NC(=O)[C@H](Cc3ccccc3)NC(=O)[C@H](C)NC(=O)[C@H](C)NC(=O)[C@H](CC(=O)O)NC(=O)[C@H](CC(=O)O)NC1=O)NC(=O)[C@H](CC(C)(C)C)NC(=O)[C@H](CC(=O)O)NC2=O (stereo partly drawn) [I-915, Ac-PL3-Asp-Npg-B5-Asp-Asp-Ala-Ala-Phe-Asn-PyrS2-3Thi-BztA-Gln-[2Napc]Lys-NH2]
- Solubility (Solubility in PBS; Solubility (uM)): 41 µM (≈ 90.2 µg/mL)
- IC50 [1]: 28 nM
- IC50 ([2]; read-out: NanoBRET Abs IC50): 15500 nM
- chromatographic logD (CHI Log D procedure; pH 7.4, CHI Log D): 2.33

SMILES: CCCC(=O)NCCCC[C@H](NC(=O)[C@H](CCC(N)=O)NC(=O)[C@H](Cc1csc2ccccc12)NC(=O)[C@H](Cc1ccsc1)NC(=O)[C@]12CCN(C1)C(=O)OCCCC=CCCCC1(CCCC=CC[C@]3(CCCN3C(C)=O)C(=O)N[C@@H](CC(=O)O)C(=O)N[C@@H](CC(C)(C)C)C(=O)N1)C(=O)N[C@@H](CC(=O)O)C(=O)N[C@@H](CC(=O)O)C(=O)N[C@@H](C)C(=O)N[C@@H](C)C(=O)N[C@@H](Cc1ccccc1)C(=O)N[C@@H](CC(N)=O)C(=O)N2)C(N)=O (stereo partly drawn) [I-917, Ac-PL3-Asp-Npg-B5-Asp-Asp-Ala-Ala-Phe-Asn-PyrS2-3Thi-BztA-Gln-[Bua]Lys-NH2]
- Solubility (Solubility in PBS; Solubility (uM)): 44 µM (≈ 93.1 µg/mL)
- IC50 [1]: 12 nM
- IC50 ([2]; read-out: NanoBRET Abs IC50): 19700 nM
- chromatographic logD (CHI Log D procedure; pH 7.4, CHI Log D): 2.15
